“And” between values parts separate entries of the source, which are not always exact repeats. Identical values can stand only once. Toxic doses and inconclusive results are not listed. No stated cut-off is given here; in the data, active means T/C of 150% or more; inactive means T/C below 125%.
System: L1210 leukemia ip in BDF1 mice, survival T/C
Assay: NCI In Vivo Anticancer Drug Screen. Data for tumor model L1210 Leukemia (intraperitoneal) in B6D2F1 (BDF1) mice
Conditions: higher = longer survival
In short: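 Ratio derived from survival: compound-dosed mice over vehicle-dosed mice, all bearing a transplantable tumor.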

Measured: T/C

S=c1nc[nH]c2nc[nH]c12
inactive: endpoint: mean survival time, dose: 0.15 mg/kg/injection, schedule: Q01DX001 (ip), vehicle: other 102 % of control | endpoint: mean survival time, dose: 0.15 mg/kg/injection, schedule: Q01DX Z (ip), vehicle: other 98 % of control | endpoint: mean survival time, dose: 0.3 mg/kg/injection, schedule: Q01DX001 (ip), vehicle: other 101 % of control | endpoint: mean survival time, dose: 0.3 mg/kg/injection, schedule: Q01DX Z (ip), vehicle: other 101 % of control | endpoint: mean survival time, dose: 0.6 mg/kg/injection, schedule: Q01DX001 (ip), vehicle: other 93 % of control and 101 % of control | endpoint: mean survival time, dose: 0.6 mg/kg/injection, schedule: Q01DX Z (ip), vehicle: other 96 % of control | endpoint: mean survival time, dose: 0.63 mg/kg/injection, schedule: Q01DX015 (ip), vehicle: alkali diluted with saline 95 % of control | endpoint: mean survival time, dose: 1.1 mg/kg/injection, schedule: Q01DX001 (ip), vehicle: other 104 % of control | endpoint: mean survival time, dose: 1.25 mg/kg/injection, schedule: Q01DX015 (ip), vehicle: alkali diluted with saline 95 % of control | endpoint: mean survival time, dose: 1.3 mg/kg/injection, schedule: Q01DX001 (ip), vehicle: other 101 % of control | endpoint: mean survival time, dose: 1.3 mg/kg/injection, schedule: Q01DX Z (ip), vehicle: other 102 % of control | endpoint: mean survival time, dose: 1.9 mg/kg/injection, schedule: Q01DX009 (ip), vehicle: alkali diluted with saline 107 % of control | endpoint: mean survival time, dose: 2.0 mg/kg/injection, schedule: Q01DX001 (ip), vehicle: carboxymethylcellulose (CMC) 107 % of control | endpoint: mean survival time, dose: 2.2 mg/kg/injection, schedule: Q01DX001 (ip), vehicle: other 104 % of control | endpoint: mean survival time, dose: 2.5 mg/kg/injection, schedule: Q01DX015 (ip), vehicle: alkali diluted with saline 100 % of control | endpoint: mean survival time, dose: 2.5 mg/kg/injection, schedule: Q01DX Z (ip), vehicle: other 107 % of control | endpoint: mean survival time, dose: 3.8 mg/kg/injection, schedule: Q01DX009 (ip), vehicle: alkali diluted with saline 105 % of control | endpoint: mean survival time, dose: 3.8 mg/kg/injection, schedule: Q03DX Z (ip), vehicle: other 108 % of control | endpoint: mean survival time, dose: 4.0 mg/kg/injection, schedule: Q01DX001 (ip), vehicle: carboxymethylcellulose (CMC) 98 % of control | endpoint: mean survival time, dose: 4.4 mg/kg/injection, schedule: Q01DX001 (ip), vehicle: other 102 % of control | endpoint: mean survival time, dose: 5.0 mg/kg/injection, schedule: Q01DX015 (ip), vehicle: alkali diluted with saline 103 % of control | endpoint: mean survival time, dose: 5.0 mg/kg/injection, schedule: Q01DX Z (ip), vehicle: alkali diluted with saline 104 % of control and 110 % of control | endpoint: mean survival time, dose: 7.5 mg/kg/injection, schedule: Q01DX009 (ip), vehicle: alkali diluted with saline 101 % of control | endpoint: mean survival time, dose: 7.5 mg/kg/injection, schedule: Q01DX009 (ip), vehicle: saline 103 % of control | endpoint: mean survival time, dose: 7.5 mg/kg/injection, schedule: Q03DX Z (ip), vehicle: other 111 % of control | endpoint: mean survival time, dose: 8.0 mg/kg/injection, schedule: Q01DX001 (ip), vehicle: carboxymethylcellulose (CMC) 95 % of control | endpoint: mean survival time, dose: 8.0 mg/kg/injection, schedule: Q04DX002 (ip), vehicle: alkali diluted with saline 105 % of control and 106 % of control | endpoint: mean survival time, dose: 10.0 mg/kg/injection, schedule: Q01DX006 (iv), vehicle: other 103 % of control | endpoint: mean survival time, dose: 10.0 mg/kg/injection, schedule: Q01DX009 (oral), vehicle: saline with Tween-80 102 % of control and 107 % of control | endpoint: mean survival time, dose: 10.0 mg/kg/injection, schedule: Q01DX015 (ip), vehicle: alkali diluted with saline 101 % of control | endpoint: mean survival time, dose: 10.0 mg/kg/injection, schedule: Q01DX Z (ip), vehicle: alkali diluted with saline 110 % of control | endpoint: mean survival time, dose: 10.0 mg/kg/injection, schedule: Q01DX Z (sc), vehicle: other 111 % of control | endpoint: mean survival time, dose: 12.0 mg/kg/injection, schedule: Q04DX003 (ip), vehicle: saline 105 % of control | endpoint: mean survival time, dose: 12.5 mg/kg/injection, schedule: Q01DX009 (ip), vehicle: saline 112 % of control | endpoint: mean survival time, dose: 12.5 mg/kg/injection, schedule: Q01DX017 (ip), vehicle: other 104 % of control | endpoint: mean survival time, dose: 12.5 mg/kg/injection, schedule: Q01DX Z (ip), vehicle: other 105 % of control | endpoint: mean survival time, dose: 15.0 mg/kg/injection, schedule: Q01DX009 (ip), vehicle: saline 112 % of control | endpoint: mean survival time, dose: 16.0 mg/kg/injection, schedule: Q01DX001 (ip), vehicle: carboxymethylcellulose (CMC) 101 % of control | endpoint: mean survival time, dose: 16.0 mg/kg/injection, schedule: Q04DX002 (ip), vehicle: alkali diluted with saline 100 % of control and 102 % of control | endpoint: mean survival time, dose: 18.0 mg/kg/injection, schedule: Q01DX015 (ip), vehicle: alkali diluted with saline 104 % of control | endpoint: mean survival time, dose: 20.0 mg/kg/injection, schedule: Q01DX005 (ip), vehicle: alkali diluted with water 108 % of control and 111 % of control | endpoint: mean survival time, dose: 20.0 mg/kg/injection, schedule: Q01DX006 (iv), vehicle: other 108 % of control | endpoint: mean survival time, dose: 20.0 mg/kg/injection, schedule: Q01DX009 (oral), vehicle: saline with Tween-80 98 % of control and 105 % of control | endpoint: mean survival time, dose: 20.0 mg/kg/injection, schedule: Q01DX Z (ip), vehicle: alkali diluted with saline 110 % of control | endpoint: mean survival time, dose: 20.0 mg/kg/injection, schedule: Q02DX008 (ip), vehicle: alkali diluted with saline 105 % of control | endpoint: mean survival time, dose: 27.0 mg/kg/injection, schedule: Q01DX015 (ip), vehicle: alkali diluted with saline 106 % of control | endpoint: mean survival time, dose: 30.0 mg/kg/injection, schedule: Q04DX003 (ip), vehicle: saline 109 % of control | endpoint: mean survival time, dose: 32.0 mg/kg/injection, schedule: Q01DX001 (ip), vehicle: carboxymethylcellulose (CMC) 101 % of control | endpoint: mean survival time, dose: 32.0 mg/kg/injection, schedule: Q04DX002 (ip), vehicle: alkali diluted with saline 102 % of control and 103 % of control | endpoint: mean survival time, dose: 35.0 mg/kg/injection, schedule: Q01DX011 (ip), vehicle: alkali diluted with saline 108 % of control | endpoint: mean survival time, dose: 40.0 mg/kg/injection, schedule: Q01DX001 (ip), vehicle: alkali diluted with saline 104 % of control | endpoint: mean survival time, dose: 40.0 mg/kg/injection, schedule: Q01DX006 (iv), vehicle: other 111 % of control | endpoint: mean survival time, dose: 40.0 mg/kg/injection, schedule: Q#A X Z (ip), vehicle: other 94 % of control | endpoint: mean survival time, dose: 45.0 mg/kg/injection, schedule: Q06HX012 (ip), vehicle: alkali diluted with saline 96 % of control | endpoint: mean survival time, dose: 53.0 mg/kg/injection, schedule: Q01DX011 (ip), vehicle: alkali diluted with saline 109 % of control | endpoint: mean survival time, dose: 60.0 mg/kg/injection, schedule: Q01DX001 (ip), vehicle: alkali diluted with saline 110 % of control and 111 % of control | endpoint: mean survival time, dose: 60.0 mg/kg/injection, schedule: Q## X015 (ip), vehicle: other 107 % of control | endpoint: mean survival time, dose: 64.0 mg/kg/injection, schedule: Q01DX001 (ip), vehicle: carboxymethylcellulose (CMC) 98 % of control | endpoint: mean survival time, dose: 80.0 mg/kg/injection, schedule: Q01DX Z (ip), vehicle: carboxymethylcellulose (CMC) 105 % of control | endpoint: mean survival time, dose: 90.0 mg/kg/injection, schedule: Q01DX009 (ip), vehicle: carboxymethylcellulose (CMC) 107 % of control | endpoint: mean survival time, dose: 109.0 mg/kg/injection, schedule: Q01DX001 (ip), vehicle: alkali diluted with saline 110 % of control and 112 % of control | endpoint: mean survival time, dose: 109.0 mg/kg/injection, schedule: Q## X001 (ip), vehicle: alkali diluted with saline 111 % of control | endpoint: mean survival time, dose: 112.0 mg/kg/injection, schedule: Q02DX010 (ip), vehicle: carboxymethylcellulose (CMC) 110 % of control | endpoint: mean survival time, dose: 120.0 mg/kg/injection, schedule: Q01DX009 (ip), vehicle: carboxymethylcellulose (CMC) 103 % of control | endpoint: mean survival time, dose: 128.0 mg/kg/injection, schedule: Q01DX001 (ip), vehicle: carboxymethylcellulose (CMC) 95 % of control | endpoint: mean survival time, dose: 129.2 mg/kg/injection, schedule: Q02DX010 (ip), vehicle: carboxymethylcellulose (CMC) 110 % of control | endpoint: mean survival time, dose: 146.0 mg/kg/injection, schedule: Q01DX001 (ip), vehicle: alkali diluted with saline 108 % of control and 112 % of control | endpoint: mean survival time, dose: 151.0 mg/kg/injection, schedule: Q01DX015 (ip), vehicle: other 105 % of control | endpoint: mean survival time, dose: 160.0 mg/kg/injection, schedule: Q01DX009 (ip), vehicle: saline with Tween-80 104 % of control | endpoint: mean survival time, dose: 160.0 mg/kg/injection, schedule: Q01DX Z (im), vehicle: other 102 % of control | endpoint: mean survival time, dose: 200.0 mg/kg/injection, schedule: Q01DX009 (ip), vehicle: Klucel (hydroxypropylcellulose) (HPC) 103 % of control | endpoint: mean survival time, dose: 200.0 mg/kg/injection, schedule: Q01DX009 (ip), vehicle: alkali diluted with saline 108 % of control | endpoint: mean survival time, dose: 200.0 mg/kg/injection, schedule: Q## X009 (ip), vehicle: alkali diluted with saline 108 % of control | endpoint: mean survival time, dose: 202.0 mg/kg/injection, schedule: Q01DX009 (ip), vehicle: alkali diluted with saline 95 % of control | endpoint: mean survival time, dose: 240.0 mg/kg/injection, schedule: Q01DX009 (ip), vehicle: alkali diluted with saline 96 % of control | endpoint: mean survival time, dose: 240.0 mg/kg/injection, schedule: Q03DX Z (ip), vehicle: other 101 % of control | endpoint: mean survival time, dose: 256.0 mg/kg/injection, schedule: Q01DX001 (ip), vehicle: carboxymethylcellulose (CMC) 98 % of control | endpoint: mean survival time, dose: 303.0 mg/kg/injection, schedule: Q04DX003 (ip), vehicle: saline with Tween-80 101 % of control | endpoint: mean survival time, dose: 400.0 mg/kg/injection, schedule: Q04DX003 (ip), vehicle: saline with Tween-80 101 % of control | endpoint: mean survival time, dose: 510.0 mg/kg/injection, schedule: Q04DX002 (ip), vehicle: alkali diluted with saline 96 % of control and 104 % of control | endpoint: mean survival time, dose: 1020.0 mg/kg/injection, schedule: Q07DX Z (ip), vehicle: other 93 % of control | endpoint: mean survival time, dose: 2675.0 micrograms/kg/injection, schedule: Q01DX Z (ip), vehicle: carboxymethylcellulose (CMC) 108 % of control | endpoint: median survival time, dose: 6.25 mg/kg/injection, schedule: Q01DX009 (ip), vehicle: other 105 % of control | endpoint: median survival time, dose: 25.0 mg/kg/injection, schedule: Q01DX009 (ip), vehicle: other 111 % of control | endpoint: median survival time, dose: 100.0 mg/kg/injection, schedule: Q01DX009 (ip), vehicle: other 111 % of control | endpoint: median survival time, dose: 160.0 mg/kg/injection, schedule: Q01DX009 (ip), vehicle: saline 100 % of control

Reference: PubChem BioAssay AID248 (DTP/NCI, 2004)
